Legend:
gram-negative organisms = conditions: Fung and Miller 1973; cited from earlier work
gram-positive organisms = conditions: Fung and Miller 1973; cited from earlier work
[1] = test system: clinical isolates of Pseudomonas aeruginosa; test: Resorufin fluorescence after 4 hour incubation with P. aeruginosa clinical isolates (FIG. 3); type: cell-based; conditions: resorufin alone 100 μM, no methylene blue, Mueller-Hinton broth, Ex560/Em590
Description: FIG. 3 Experiment: Four clinical isolates of P aeruginosa were inoculated into MHB at a 1:200 dilution from a 0.5 McFarland standard. Resorufin was added to each well at a 100 μM final concentration. Plates were incubated shaking for 4 hours at 37° C. Fluorescence was read at Ex560/Em590. Uninoculated MIHB with resorufin was included as a negative control.

Compound: CN(C)c1ccc2nc3ccc(=[N+](C)C)cc-3sc2c1 [methylene blue, Methylene blue]
- effect of high concentrations on gram-negative organisms (gram-negative organisms): tolerated
- effect of high concentrations on gram-positive organisms (gram-positive organisms): inhibitory

Compound: O=c1ccc2nc3ccc(O)cc3oc-2c1 [resorufin]
- remaining resorufin fluorescence after P. aeruginosa growth [1]: does not eliminate the resorufin fluorescence

— patent US20190300927A1, “METABOLIC ASSAY FOR BACTERIAL GROWTH AND GRAM TYPING” (SELUX DIAGNOSTICS, INC., priority 2018, published 2019)
